The text below walks through data of patent publication US20240018501A1, “HIGHER PERFORMANCE PROTEASES FOR SCARLESS PEPTIDE TAG REMOVAL” (priority 2017, published 2024).

Ends that are not written are not given here. * marks the point of attachment. Butanoyl(2-oxo) = CCC(=O)C(=O)*; Pyruvoyl = CC(=O)C(=O)*

The subject of data set [1] is His6-ElxO. The data set is described as follows: His6-ElxO activity assay (NADPH absorbance at 340 nm, LC-MS). It counts as biochemical, Staphylococcus epidermidis 15X154. To be noted: LC-MS analysis. On the procedure:
Wild type or mutant His6-ElxO (2 or 10 μM) and purified peptide (0.1 to 5 mM) were incubated with NADPH (2.5 mM) in assay buffer (100 mM HEPES, 500 mM NaCl, pH 7.5) at 25° C. Reaction progress was monitored by UV spectrophotometry to measure initial rates, measuring the disappearance of NADPH absorbance at 340 nm. […] The mobile phase was 0.1% (v/v) formic acid in water (A) and methanol (B). A gradient of 0-70% (v/v) B in A over 30 minutes and a flow rate of 0.5 mL min^−1 were used.
Synthetic lactocin S (50 μM), obtained from Prof. J. Vederas (University of Alberta), was incubated with His6-ElxO (50 μM) and NADPH (10 mM) in assay buffer (100 mM HEPES, 500 mM NaCl, pH 7.5) at room temperature for 12 h. […] A gradient of 3-97% (v/v) B (0.10% (v/v) formic acid in methanol) in A (0.1% (v/v) formic acid in water) over 12 min was used.

Data set [2] concerns L. sake L45. The data set is described as follows: Agar diffusion bioactivity assay, lactocin S producer strain. The class given is cell-based, Lactobacillus sake. On the procedure: (§1) Agar diffusion bioactivity assays were performed using de Man-Rogosa-Sharpe (MRS) agar media. For each assay, aliquots of agar medium inoculated with overnight cultures of indicator strain (1/100 dilution) were poured into sterile plates. Aliquots of 20 μL of sample were placed into wells made on the solidified agar and the plates were incubated at 37° C. overnight. For determination of critical concentration, the diameter of the inhibition zones were determined and fitted to the equation D=a+b×(C), where D is the diameter of the inhibition zone, C is the concentration of bacteriocin, and a and b are constant parameters. For MIC determinations, serial dilutions of peptides were prepared in MRS broth and aliquots of 50 μL were dissolved in 150 μL of a 1 to 50 dilution of an overnight culture of indicator strain in fresh MRS broth on 96-well plates. The cultures were incubated at 37° C. overnight and the wells with no bacterial growth (OD600<0.3) were determined.

For data set [3], the system named is Pediococcus acidilactici Pac1.0. The data set is described as follows: Agar diffusion bioactivity assay. It counts as cell-based. To be noted: for activity against P. acidilactici Pac1.0: agar diffusion. On the procedure: as §1
Background: In agar diffusion tests the substance spreads into inoculated agar from a disc or well.

Data set [4] addresses modified CylLS.
Data set [5] has as its system modified CylLS. The data set is described as follows: Kinetic analysis of full length CylA and CylA-96-412 against modified CylLS (LC/MS). The class given is biochemical, Enterococcus faecalis. On the procedure:
Targeted peptides were dissolved in H2O to a final concentration of 3 mg/mL. To a 85 μL solution of peptides, 10 μL of 500 mM HEPES buffer (pH 7.5) was added followed by 5 μL of 0.5 mg/mL AspN protease (for modified CylLL and CylLS peptides), 0.1 mg/mL CylA protease (for modified and unmodified CylLL, CylLS peptides, and modified HalA2-GDVQAE peptide) or 0.1 mg/mL LicP protease (for LicA2). For cleavage tests of the engineered GDVQAE peptides, CylA was added to a final concentration of 0.01 mg/mL, whereas the peptide was added to a concentration of 0.3 mg/mL with 50 mM HEPES buffer (pH 7.5). The protease cleavage reaction mixtures were kept at 25° C. for 1 to 48 h. Osmotic pressure was adjusted with NaCl solution with a final concentration of 150 mM. The digested peptide mixture was directly used for antimicrobial and hemolytic assay. For the kinetic analysis of CylA and its mutant proteins, His6-CylA-27-412 and His6-CylA-27-412-E95A proteins were added to a final concentration of 500 ng/mL and 2.5 μg/mL (22 nM and 110 nM), respectively, with modified CylLS supplied at a concentration of 0.3 mg/mL (36 μM). The reactions were allowed to proceed at room temperature and were stopped by 1% TFA at different time points for LC/MS analysis. Halα and Halβ were obtained by factor Xa cleavage of modified HalA1Xa and HalA2 Xa peptides using the procedure of Y. Shi, et al. J. Am. Chem. Soc. 2011, 133, 2338. CylLL″ and CylLS″ were prepared in the same way using modified CylLL-E-1K and CylLS-E-1K peptides as described in W. Tang and W. A. van der Donk, Nat. Chem. Biol. 2013, 9, 157.
As full length CylA is not available due to its self-cleavage, His6-CylA-27-412-E95A was chosen to serve as a substituent of full length CylA as the self-cleavage was abolished whereas the conserved catalytic C-terminal region of CylA remained unchanged. To obtain the mature protease CylA-96-412, His6-CylA-27-412 was aged at 4° C. for 12 hours to allow the self-cleavage to proceed until CylA-96-412 was the dominant peak monitored by MALDI-TOF MS. The aged protein mixture was directly used as a substituent of CylA-96-412. To test the proteases' activities, CylA-96-412 and His6-CylA-27-412-E95A were supplied with a final concentration of 22 nM and 110 nM, respectively, with modified CylLS served at a concentration of 36 μM. The reactions were stopped at 3 minute, 6 minute, 12 minute and 24 minute by 1% TFA and the formation of mature CylLS″ was monitored by liquid chromatography MS (LC/MS). […] The production of core peptide was analyzed by extracted ion chromatography monitoring the desired product mass 1017 (M+2H^+).

Data set [6] in a line: Storage and freeze-thaw stability of the proteases. It counts as physicochemical.
[7] abbreviates: serial dilution agar diffusion, versus control samples containing native lactocin S.

As to OBu-AAIAK, the “reduction by His6-ElxO in the presence of NADPH” value (from here on “reduction by His6-ElxO”) in data set [1] is reported as “substrates for the enzyme”.
On to “Pyr-LGPAIK (Pyruvoyl-LGPAIK) [mimics the N-terminal portion of dehydroepicidin 280]”, for which the “reduction by His6-ElxO” value in data set [1] is “reduced”.
dihydrolactocin S: in data set [2], the “activity against L. sake L45” value was “not against L. sake L45”. For the same molecule, the “activity against P. acidilactici Pac1.0” value in data set [3] is “active”. In data set [3] (setting [7]), the “critical concentrations (no inhibition zone)” value is “smaller” and the inhibition zones result was “slightly larger”.
As for “Pyr-APVLA (Pyruvoyl-APVLA) [resembles the N-terminus of lactocin S]”, the “reduction by His6-ElxO” value in data set [1] is reported as “reduced”.
On the same count and under the same terms, to Pyr-AAI (Pyruvoyl-Ala-Ala-Ile) belongs “reduced”; to Pyr-AAIV (Pyruvoyl-AAIV), “reduced”; to Pyr-AAVLK, “reduced”.
Turning to OBu-AAAVK ({Butanoyl(2-oxo)}-AAAVK), the “reduction by His6-ElxO” value in data set [1] is listed as “substrates for the enzyme”.
Turning to lactocin S [reference compound], in data set [1], the “reduction by His6-ElxO” value is “confirming the formation of dihydrolactocin S”. The “activity against L. sake L45” value in data set [2] was “not against L. sake L45”. For the same molecule, the “activity against P. acidilactici Pac1.0” value in data set [3] is “active”.
With Obu-RAIVK, the “reduction by His6-ElxO” value in data set [1] is “accepted as substrates”.
Same read-out and setting: to Obu-AAIVK belongs “accepted as substrates”; to Glx-AAIVK, “no significant formation of the reduced peptide”; to “OBu-AGPAIR ({Butanoyl(2-oxo)}-AGPAIR) [resembles the N-terminus of Pep5]”, “reduced”.
The same measure, in the same setting: to Pyr-BPVLAAVAVAKKK belongs “reduced”.

B1: CylA-96-412 (protein)
chain: EVNSSILNINILNKDFKSFNWPYKKILSHIDPVKEQLGKDITIALIDSGIDRLHPNLQDNNLRLKNYVNDIELDEYGHGTQVAGVIDTIAPRVNLNSYKVMDGTDGNSINMLKAIVDATNDQVDIINVSLGSYKNMEIDDERFTVEAFRKVVNYARKNNILIVASAGNESRDISTGNEKHIPGGLESVITVGATKKSGDIADYSNYGSNVSIYGPAGGYGDNYKITGQIDAREMMMTYYPTSLVSPLGKAADFPDGYTLSFGTSLATPEVSAALAAIMSKNVDNSKDSNEVLNTLFENADSFIDKNSMLKYKEVRIK
In the case of B1, the “rate of proteolysis, formation of CylLS″ by LC/MS (22 nM enzyme, 36 µM substrate)” value in data set [4] is reported as “CylA-96-412 catalyzed the proteolysis of 20 substrate peptides per minute”. In data set [5] (enzyme 22 nM, modified CylLS 36 μM, room temperature, LC/MS), the “rate of proteolysis of modified CylLS” value is on record as 20 substrate peptides per minute.

B2: CylA: class II LanP subtilisin-like serine protease of enterococcal cytolysin biosynthesis, SEQ ID NO: 9 (protein)
chain: MKKRGLTYILISYIFLILGTTGYASDLSNNISFFIDNSQTTAIEEIESELSSEKVDYIQEIGLVSFKNLDDSDRKFIGKYFNVSEGKKLPDFKPEEVNSSILNINILNKDFKSFNWPYKKILSHIDPVKEQLGKDITIALIDSGIDRLHPNLQDNNLRLKNYVNDIELDEYGHGTQVAGVIDTIAPRVNLNSYKVMDGTDGNSINMLKAIVDATNDQVDIINVSLGSYKNMEIDDERFTVEAFRKVVNYARKNNILIVASAGNESRDISTGNEKHIPGGLESVITVGATKKSGDIADYSNYGSNVSIYGPAGGYGDNYKITGQIDAREMMMTYYPTSLVSPLGKAADFPDGYTLSFGTSLATPEVSAALAAIMSKNVDNSKDSNEVLNTLFENADSFIDKNSMLKYKEVRIK
modifications: … PEPTIDE SEQUENCE FOR FULL LENGTH CylA
Take B2: in data set [6], the “activity after multiple rounds of freeze-thaw” value is reported as “no obvious decrease of activity”. Also, the stability on storage result in data set [6] (−20° C) is “stable”. The same molecule came in with a turnover rate in data set [5] of 20 min⁻¹.
